From patent US20250333418A1, “PURINE COMPOUNDS, COMPOSITIONS COMPRISING THEM AND USES THEREOF” (Novo Nordisk A/S, priority 2022, published 2025) come the findings set out here.

A value given as a limit tells only on which side of the number the result lay.

Assay [1] deals with T1, human CB1 receptor (Homo sapiens, UniProt P21554).
T1 construct: expressed in transfected cells; host or cells: HEK293
As to the kind of experiment: bioSensAll β-arrestin2 plasma membrane translocation (+GRK2) BRET biosensor assay in HEK293 cells transfected with hCB1; test compound added before EC75-80 of agonist CP55,940 (100 nM). In kind it is cell-based. Particulars: βArrestin2 (+GRK2) BRET biosensor, vs CP55,940 100 nM (EC75-80), read-out: CB1 wt βarr2 IC50. On the procedure: (§1) Using polyethylenimine (PEI) transfection agent, HEK293 cells were transfected in suspension with the human CB1 receptor and one of the following bioSensAll® assays: GAPL-Gi2, or β-arrestin plasma membrane (PM) translocation biosensor (+GRK2). Cells were directly seeded in 96-well plates immediately following transfection.
(§2) Cells were incubated with coelenterazine (luciferase substrate) and different test compounds prior to the measurement of BRET signals.
(§3) Used in this project are i) Gα plasma membrane (GAPL) biosensors and the ii) β-arrestin plasma membrane translocation biosensor.
ii) The multimolecular β-arrestin membrane recruitment biosensors allow for real-time spatio-temporal monitoring of β-arrestin 1 and β-arrestin 2 following GPCR activation. Specifically, these β-arrestin sensors were designed to detect the recruitment of proteins to the plasma membrane (β-arrestin PM) with localization to compartment resulting in an increased BRET signal.
(§4) HEK293 cells were maintained in Dulbecco's Modified Eagle Medium (DMEM) (Wisent; cat #319-030-CL: without sodium pyruvate, with 4.5 g/L glucose, without L-glutamine) supplemented with 1% penicillin-streptomycin (Wisent; cat #450-201-EL) and 2 or 10% fetal bovine serum (Wisent cat #090150).
(§5) HEK293 cells were co-transfected with hCB1 and one of the above-listed bioSensAll® assays. For each transfection condition: • the total amount of transfected DNA was kept constant at 1 μg per mL of cell culture to be transfected; whenever necessary, salmon sperm DNA (Invitrogen, cat #15632011) was used as ‘carrier’ DNA to supplement plasmid DNA (i.e., biosensor and receptor); • the PEI (polyethylenimine 25 kDa linear, PolyScience, cat #23966) to DNA ratio (ug:ug) was fixed at 3:1.
(§6) Transfections were carried out as follows: • DNA and PEI were first diluted separately in 150 mM NaCl. The volume of the diluent in each tube corresponds to 5% of the cell culture volume to be transfected. • Once DNA and PEI were diluted, the PEI-containing solution was added to the DNA solution and the DNA/PEI mixture immediately vortexed for 5 seconds. • The DNA/PEI mixture was incubated for at least 20 minutes at room temperature to allow for the formation of DNA/PEI complexes. • During the incubation, HEK293 cells were detached, counted and re-suspended in culture medium (composition specified above). • At the end of the incubation period, the DNA/PEI mixture was added to the cells. • Cells were finally distributed in 96-well plates (White Opaque 96-well/Microplates, Greiner, cat #655083 or CulturPlate-96, White Opaque 96-well Microplate, PerkinElmer, cat #6005688) at a density of 30,000 cells per well.
(§7) At 48 hours post-transfection: • Using 450-Select TS Biotek plate washer, culture medium was aspirated and replaced with 100 μL of Hank's Balanced Salt Solution buffer (HBSS) (Wisent, cat #319-067CL: without red phenol; with sodium bicarbonate, with calcium and magnesium, with HEPES) per well. • Plates were then incubated (equilibrated) at 37° C., 5% CO2 for 60 minutes. • Increasing doses of test compounds were then added to each well using the HP D300e digital dispenser (Tecan). All compounds were assayed at the following 12 concentrations (in nM) with each biosensor: 0.000, 0.013, 0.040, 0.120, 0.320, 0.960, 2.80, 8.00, 24.0, 70.0, 205 and 600. • Three to 5 minutes later, an assay-specific effective concentration (EC)75-80 of agonist CP55,940 (i.e., 0.1 nM and 100 nM for G[…]i2-GAPL or […]Arrestin2 (+GRK2) assay, respectively) was added to wells previously injected with test compound (i.e., previous step 3). […]
A general note: In BRET a luciferase serves as donor, and the signal depends on an acceptor being close.

The target in assay [2] is T1, human CB1 receptor. Kind of assay: bioSensAll GAPL-Gi2 BRET biosensor assay in HEK293 cells transfected with hCB1; test compound added before EC75-80 of agonist CP55,940 (0.1 nM). In kind it is cell-based. Particulars: vs CP55,940 0.1 nM (EC75-80), read-out: CB1 wt Gi2 IC50. How it is done:
as §1, §2, §3
i) GAPL sensors are used to monitor the activation of heterotrimeric G proteins at the plasma membrane upon receptor stimulation. Specifically, these multimolecular BRET sensors detect the plasma membrane recruitment of proteins that interact with active Gα subunits in a G protein family-selective manner. G protein activation following receptor stimulation generally leads to an increase in the BRET signal.
as §4, §5, §6, §7

T1 sequence (P21554 whole entry): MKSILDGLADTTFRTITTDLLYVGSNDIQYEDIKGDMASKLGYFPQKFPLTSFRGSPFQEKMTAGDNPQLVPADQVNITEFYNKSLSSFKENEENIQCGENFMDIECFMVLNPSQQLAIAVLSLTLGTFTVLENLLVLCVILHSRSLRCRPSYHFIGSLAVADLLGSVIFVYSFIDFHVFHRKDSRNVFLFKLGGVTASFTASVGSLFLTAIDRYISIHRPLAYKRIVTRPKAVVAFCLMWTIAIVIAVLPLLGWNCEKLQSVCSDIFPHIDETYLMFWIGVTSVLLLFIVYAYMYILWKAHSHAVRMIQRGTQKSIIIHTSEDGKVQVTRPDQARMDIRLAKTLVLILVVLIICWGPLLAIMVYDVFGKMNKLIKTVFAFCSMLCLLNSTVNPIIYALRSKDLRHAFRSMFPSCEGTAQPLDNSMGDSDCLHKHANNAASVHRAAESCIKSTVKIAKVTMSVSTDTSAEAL

For `C[C@H](O)CN(C)c1nc(N2CCC(C)(C(N)=O)CC2)c2nc(-c3ccccc3Cl)n(-c3ccc(Cl)cc3)c2n1` [Compound 55, 1-[8-(2-chlorophenyl)-9-(4-chlorophenyl)-2-[[(2S)-2-hydroxypropyl]-methyl-amino]purin-6-yl]-4-methyl-piperidine-4-carboxamide], the IC50 – broadly, the concentration needed to halve the response being measured – in assay [1] came to 4.58 nM; in assay [2], 0.647 nM.

With `C[C@@H](O)COc1nc(N2CCC(C)(C(N)=O)CC2)c2nc(-c3ccccc3Cl)n(-c3ccc(Cl)cc3)c2n1` [Compound 79, 1-[8-(2-chlorophenyl)-9-(4-chlorophenyl)-2-[(2R)-2-hydroxypropoxy]purin-6-yl]-4-methyl-piperidine-4-carboxamide], the IC50 worked out at 4.37 nM in assay [1] and 0.868 nM in assay [2].

`OC[C@H]1CCCN1c1nc(N2CCC(C(F)(F)F)CC2)c2nc(-c3ccccc3Cl)n(-c3ccc(Cl)cc3)c2n1` [Compound 29, [(2R)-1-[8-(2-chlorophenyl)-9-(4-chlorophenyl)-6-[4-(trifluoromethyl)-1-piperidyl]purin-2-yl]pyrrolidin-2-yl]methanol]: the IC50 in assay [1] was above 5000 nM; in assay [2], 6.92 nM.

`CC(C)(O)COc1nc(N2CCNCC2)c2nc(-c3ccccc3Cl)n(-c3ccc(Cl)cc3)c2n1` [Compound 219]: in assay [2], the IC50 stood at 59.7 nM. Take `NC(=O)N1CC(Nc2nc(N3CCC[C@H]3CO)nc3c2nc(-c2ccccc2Cl)n3-c2ccc(Cl)cc2)C1` [Compound 175]: in assay [2], the IC50 is 5.3 nM. Still for that read-out and setting: as for `CC(C)(O)COc1nc(N2CC(C(N)=O)C2)c2nc(-c3ccccc3Cl)n(-c3ccc(Cl)cc3)c2n1` [Compound 238], the figure is 13.8 nM; as for `CCOC1(C(=O)O)CCN(c2nc(OCC(C)(C)O)nc3c2nc(-c2ccccc2Cl)n3-c2ccc(Cl)cc2)CC1` [Compound 218], 7.82 nM. For `CC(C)(O)COc1nc(N2CCC(C)(C(=O)O)CC2)c2nc(-c3ccc(C#N)nc3)n(-c3ccc(Cl)cc3)c2n1` [Compound 118, 1-[9-(4-chlorophenyl)-8-(6-cyano-3-pyridyl)-2-(2-hydroxy-2-methyl-propoxy)purin-6-yl]-4-methyl-piperidine-4-carboxylic acid], in assay [1], the IC50 was above 5000 nM. Take `CN(CC(C)(C)O)c1nc(N2CC(C(N)=O)C2)c2nc(-c3ccc(C#N)nc3)n(-c3ccc(Cl)cc3)c2n1` [Compound 129]: the IC50 in assay [2] was 438 nM. Regarding `CN(CP(C)(C)=O)c1nc(N2CCC(C)(C(N)=O)CC2)c2nc(-c3ccccc3Cl)n(-c3ccc(Cl)cc3)c2n1` [Compound 71, 1-[8-(2-chlorophenyl)-9-(4-chlorophenyl)-2-[dimethylphosphorylmethyl(methyl)amino]purin-6-yl]-4-methyl-piperidine-4-carboxamide], the IC50 in assay [2] was found to be 9.05 nM.

Take `Cc1nc(C#N)ccc1-c1nc2c(N3CCC(C)(C(N)=O)CC3)nc(OCC(C)(C)O)nc2n1-c1ccc(Cl)cc1` [Compound 107, 1-[9-(4-chlorophenyl)-8-(6-cyano-2-methyl-3-pyridyl)-2-(2-hydroxy-2-methyl-propoxy)purin-6-yl]-4-methyl-piperidine-4-carboxamide]: the IC50 in assay [2] amounted to 27.7 nM. As to `CC(C)(O)COc1nc(NCCO)c2nc(-c3ccccc3Cl)n(-c3ccc(Cl)cc3)c2n1` [Compound 98], in assay [1], the IC50 is above 5000 nM.

Consider `Cc1cnccc1-c1nc2c(N3CCC(C)(C(N)=O)CC3)nc(OCC(C)(C)O)nc2n1-c1ccc(Cl)cc1` [Compound 122, 1-[9-(4-chlorophenyl)-2-(2-hydroxy-2-methyl-propoxy)-8-(3-methyl-4-pyridyl)purin-6-yl]-4-methyl-piperidine-4-carboxamide], for which the concentration for half-maximal inhibition (IC50) in assay [2] stood at 14.6 nM. Still for that read-out and setting: as for `CC(=O)NC1(C)CN(c2nc(OCC(C)(C)OP(=O)(O)O)nc3c2nc(-c2ccccc2Cl)n3-c2ccc(Cl)cc2)C1` [Compound 239, 1-((6-(3-acetamido-3-methylazetidin-1-yl)-8-(2-chlorophenyl)-9-(4-chlorophenyl)-9H-purin-2-yl)oxy)-2-methylpropan-2-yl dihydrogen phosphate], the figure is 27.4 nM.
